Experimental data published in patent publication US5272143A, “6-oxoazepinoindole compounds, and pharmaceutical compositions containing them” (Kali-Chemie Pharma GmbH, priority 1991, dated 1993).
Structures can show the parent of a compound that is named as a salt.

Columns and labels:
Mouse = tested on: Mouse; parameters: species or system Male mice; settings: in vivo, po, 4320 min
Experimental: 1. Determination of the minimum toxic dose.
Male mice of 20-25 g weight are administered maximum doses of 300 mg/kg of the test substance p.o. The animals were carefully observed for 3 hours for symptoms of toxicity. Over a period of 72 hours after administration, all symptoms and cases of death are additionally recorded. Concomitant symptoms are likewise observed and recorded. If death or strong toxic symptoms are observed, further mice are administered increasingly lower doses until toxic symptoms no longer occur. The lowest dose which causes death or strong toxic symptoms is given in the following Table A as the minimum toxic dose. The example numbers given in Table A relate to the subsequent preparation examples.

stomach motility = experiment: Determination of effect on stomach motility in anaesthetised rats; type: in vivo, rats of the SIV 50 strain; settings: rat; for change in vivo at 10 µmol/kg / change in vivo at 100 µmol/kg: ip, read-out: Maximum Amplitude Increase (increase in % of control amplitude)
Experimental: 2. Determination of effect on stomach motility in anaesthetised rats.
For the tests, groups of 5-6 fasting rats of the SIV 50 strain having a body weight of 220-290 g were used in each test which had been anaesthetised with a ketamine/xylazine mixture. The animals received an initial dose of 1 ml/kg of a solution of 50 mg/ml of ketamine and 10 mg/ml of xylazine administered i.p., and the anaesthetic level was maintained by a continuous intraperitoneal infusion of the same solution at an infusion rate of 1 ml/kg/h. The animals were tracheotomised and laparotomised. After applying a pylorus ligature, a stomach tube was inserted into the stomach and connected at the other end by means of a three-way tap to a calibrated pressure transducer (Statham Element P 23 ID). A corresponding tube was inserted rectally 8-9 cm into the colon and likewise connected in the same manner to a calibrated pressure transducer of the same type. The stomachs of the animals were then filled with 2 ml of water via the tube. After a stabilisation phase of 40 min, the pressure variations in the stomach and colon were measured over a test period of 2 hours and 20 minutes, and the amplitudes produced by the phasic gastric motility were recorded by means of a Watanabe multirecorder (MC 6621). The geometric mean values of the amplitudes during the first 20 min were determined for the individual animals and used as control amplitude values. After the first 20 min, the test substances were administered i.p. The maximum increase in amplitude (=mean value of the 20 minute period in which the highest increase in amplitude occurs) caused by the test substances was determined in % increase of the control amplitude values determined before administration of the test substances, and the mean value for the animal group is given in the following Table A. In addition, the maximum increase in the mean gastric tone caused by the test substances during the test period compared with the mean gastric tone existing before administration of the test substances was recorded. This increase in gastric tone is given in Table A in cm of H2 O (mean value of the animal group). In the colon, the test substances cause amplitude damping.

5-HT1-like receptors = experiment: Serotonin-agonistic contractions in segments of the isolated basilar artery of the pig (in vitro antimigraine activity); type: cell-based; settings: for Maximum Contraction Produced by Test Substance Relative to Maximum Contraction Produced by Serotonin = 1 / relative potency calculated as pD2 of the test substance relative to the pD2 of serotonin determined on the same piece of artery / pD2 = neg. log of Concentration Which Produces 50% of Maximum Contraction: porcine basilar artery, in vitro; for pD2 = neg. log of Concentration Which Produces 50% of Maximum Contraction: concentrations in mol/l
Text: 3. Investigation of Properties Indicating Antimigraine Activity of Test Substance in vitro. Migraine pains are associated with excessive dilation of the cranial vascular system. […] This property of the test substances can be used as a basis for predicting anti-migraine activity. The serotoninagonistic activity of the substances on 5-HT1 -like receptors can be determined in vitro in isolated organ strips from the basilar artery of a pig. […] Such a contraction is also produced by the test substances and is a good index of the antimigraine activity of the substances. The tests are carried out according to the method described by van Charldorp et al. (Naunyn-Schmiedeb. Arch. Pharmacol. supp. to volume 341, R89, 1990 and Eur. J. Pharmacol. 183, 1106-1107, 1990). Experimental description of the in vitro determination of the effect inducing serotonin-agonistic contractions in segments of the isolated basilar artery of the pig. For the experiment, helical segments of the basilar artery of pigs were used which were isolated from pig brains supplied by a slaughterhouse. Each strip was fixed in an organ bath consisting of 10 ml of a modified Tyrode solution such that the tissue was under a tension of 10 mN. […] The solution was modified by adding 10^-8 mol/l of indomethacin, 10^-7 mol/l of atropine and 10^-7 mol/l of propanolol and adjusted to pH=7.4. The bath was aerated with a mixture of 95% O2 and 5% CO2. After an equilibration phase of 1 hour a contraction of the tissue was produced twice, in each case by addition of serotonin at a concentration of 10^-5 mol/l and the preparation was subsequently washed out. The contraction effect was then measured with increasing serotonin concentration and a cumulative concentration effect curve for serotonin was drawn up. A cumulative concentration effect curve was drawn up for the test substance on the same preparation (after washing out again). In the following Table B, the maximum contraction caused by the test substances in relationship to the maximum contraction produced by serotonin, and the negative logarithm of that concentration of the test substance which produces 50% of the maximum contraction which can be produced by this test substance (=pD2), and the relative potency calculated as pD2 of the test substance relative to the pD2 of serotonin determined on the same piece of artery are given.

| action on 5-HT1-like receptors in the basilar artery (contraction) (5-HT1-like receptors; isolated basilar artery) | Structure (SMILES) | Minimum Toxic Dose (Mouse) [mg/kg] | change in vivo at 10 µmol/kg (stomach motility; 10 μmole/kg i.p.) [%] | Gastric Tone Increase (stomach motility; 10 μmole/kg i.p.) [cm H2O] | Maximum Contraction Produced by Test Substance Relative to Maximum Contraction Produced by Serotonin = 1 (5-HT1-like receptors) | relative potency calculated as pD2 of the test substance relative to the pD2 of serotonin determined on the same piece of artery (5-HT1-like receptors) | pD2 = neg. log of Concentration Which Produces 50% of Maximum Contraction (5-HT1-like receptors) | change in vivo at 100 µmol/kg (stomach motility; 100 μmole/kg i.p.) [%] | Gastric Tone Increase (stomach motility; 100 μmole/kg i.p.) [cm H2O] |
| --- | --- | --- | --- | --- | --- | --- | --- | --- | --- |
| – | NCC1CNC(=O)c2cccc3[nH]cc1c23 (racemic) [Example 1, 3-Aminomethyl-3,4,5,6-tetrahydro-6-oxo-1H-azepino[5,4,3-cd]indole] | > 300 | 449 | 7.4 | 0.8 | 0.132 | 6.5 | – | – |
| – | CNCC1CNC(=O)c2cccc3[nH]cc1c23 (racemic) [Example 4, 3-Methylaminomethyl-3,4,5,6-tetrahydro-6-oxo-1H-azepino[5,4,3-cd]indole] | > 300 | – | – | 0.6 | 0.208 | 6.8 | 532 | 9.0 |
| – | NC[C@@H]1CNC(=O)c2cccc3[nH]cc1c23 [Example 1a, 3R(+)-3-Aminomethyl-3,4,5,6-tetrahydro-6-oxo-1H-azepino[5,4,3-cd]indole] | – | – | – | 1.0 | 0.172 | 6.7 | – | – |
| – | CNC[C@@H]1CNC(=O)c2cccc3[nH]cc1c23 [Example 4a, 3R(+)-3-methylaminomethyl-3,4,5,6-tetrahydro-6-oxo-1H-azepino[5,4,3-cd]indole hydrochloride] | – | – | – | 0.6 | 0.354 | 7.0 | – | – |
| – | Cn1cc2c3c(cccc31)C(=O)NCC2CN (stereo not shown) [Example 9, 1-methyl-3-aminomethyl-3,4,5,6-tetrahydro-6-oxo-1H-azepino[5,4,3-cd]indole] | > 300 | 334 | 5.5 | 0.5 | 0.124 | 6.4 | – | – |
| – | COCN1CC(CN)c2c[nH]c3cccc(c23)C1=O (stereo not shown) [Example 12, 3-aminomethyl-5-methoxymethyl-3,4,5,6-tetrahydro-6-oxo-1H-azepino[5,4,3-cd]indole] | – | – | – | 0.7 | 0.050 | 6.0 | – | – |
| – | COc1ccc(CCn2cc3c4c(cccc42)C(=O)NCC3CN)cc1OC (stereo not shown) [Example 36] | > 300 | – | – | – | – | – | 351 | 11.5 |
| – | O=C1NCC(CN2CCCC2)c2c[nH]c3cccc1c23 (stereo not shown) [Example 37] | > 300 | – | – | – | – | – | 950 | 4.0 |
| – | CCCNCC1CNC(=O)c2cccc3[nH]cc1c23 (stereo not shown) [Example 38] | > 300 | – | – | – | – | – | 559 | 12.4 |
| – | CN(C)CC1CNC(=O)c2cccc3[nH]cc1c23 (stereo not shown) [Example 39] | > 300 | – | – | – | – | – | 569 | 1.8 |
| – | CCCN(CCC)CC1CNC(=O)c2cccc3[nH]cc1c23 (stereo not shown) [Example 40] | > 300 | – | – | – | – | – | 997 | 6.5 |
| – | CCCCNCC1CNC(=O)c2cccc3[nH]cc1c23 (stereo not shown) [Example 41] | > 300 | – | – | – | – | – | 234 | 2.7 |
| – | O=C1NC(CNC2CC2)Cc2c[nH]c3cccc1c23 (stereo not shown) [Example 45] | > 300 | – | – | – | – | – | 580 | 3.5 |
| concentration -dependent contraction | NCCc1c[nH]c2ccc(O)cc12 [Serotonin, reference compound] | – | – | – | – | – | – | – | – |
